Patent US10653679B2, “Compositions and methods for inhibiting bacterial growth” (priority 2015, dated 2020)
pEC50: −log10 of the molar value. Entries after “also recorded” stand apart in the source; their conditions may differ. Like-named read-outs stand apart in the source and are kept apart here.

What was measured:
PhoPR regulon [1] = assay: microbe, parasite or virus in culture; assay type: cell-based; settings: Mycobacterium tuberculosis
Mtb CDC1551(aprA′::GFP) = assay type: cell-based, Mycobacterium tuberculosis
PhoPR regulon [2] = assay: RNA-seq transcriptional profiling; assay type: cell-based, Mycobacterium tuberculosis
PhoPR regulon [3] = assay: Semi-quantitative real-time PCR of phoP, aprA and pks2; assay type: cell-based, Mycobacterium tuberculosis
Esx-1 protein export = assay: Analysis of Esx-1 protein export (Western blot); assay type: cell-based, Mycobacterium tuberculosis; settings: Mtb Erdman, Sauton's medium, ETZ 80 μM
PhoPR regulon [4] = assay: cells; assay type: cell-based, Mycobacterium tuberculosis
[5] = in animals, previously reported, cited from earlier work
WT Mtb CDC1551 = assay: Cytoplasmic pH measurement
[6] = test system: Mtb-associated granulomatous pneumonia; assay: Lung histopathology of infected mice; settings: ETZ 100 mg/kg vs CMC treated animals
Excerpt: (§1) C57BL/6 mice were infected via the intranasal route with 1000 CFU of the Erdman (aprA′::GFP smyc′::mCherry) dual fluorescent reporter. […] After 4 weeks, the right lung was homogenized and plated for enumeration of the bacterial load and the left lung was fixed in 4% paraformaldehyde before being transferred to 30% sucrose for confocal microscopy and pathology evaluation (FIG. 8). This experiment was repeated and the data from the two independent biological replicates were similar and therefore combined. […] Mice were euthanized by carbon dioxide asphyxiation followed by cervical dislocation.
For histopathology, transverse sections of each lung specimen was fixed in 4% paraformaldehyde for 48 hours, transferred to 50% ethanol for 4 hours, processed routinely, embedded in paraffin, and sectioned at 4 μm, followed by routine hematoxylin and eosin staining.

Mtb lipid synthesis = assay: Analysis of mycobacterial lipids (14C radio-TLC); settings: 80 μM ETZ
BMDMs = assay: Phagosome acidification (pHrodo labeled beads in BMDMs); settings: ETZ up to 100 μM, 4 h pre-treatment, 100 minutes
PhoPR regulon [7] = assay: Quantitative single-cell imaging of reporter fluorescence in infected mouse lungs; settings: ETZ treated lungs, 100 mg/kg oral, 4 weeks
Excerpt: as §1
PFA fixed mouse lungs were frozen in a 30% sucrose PBS pH 7.4 solution, frozen in a dry ice, ethanol bath, and stored at −80° C. until imaging. At the time of imaging, lungs were thawed and hand-sectioned using a sterile scalpel. Sections were transferred to a microscope slide and 10 μL of ProLong® Gold antifade reagent (Invitrogen) was added. […] Settings for GFP and mCherry fluorescence were held constant through the image acquisition to allow for comparison between samples. For quantification of Mtb reporter fluorescence, bacilli were identified in the mCherry channel and the corresponding sum of GFP fluorescence was measured using the Volocity software package (Perkin Elmer). At least 1500 bacilli were counted across multiple fields of view and lungs.

SMILES: CCOc1ccc2nc(S(N)(=O)=O)sc2c1 [ETZ, 6-ethoxy-1,3-benzothiazole-2-sulfonamide]
- pEC50 (PhoPR regulon [1]; 144 h, pH 5.7, read-out: EC50 of inhibition of CDC1551(aprA′::GFP) reporter fluorescence): 5.25
- pEC50 (PhoPR regulon [1]; pH 7, read-out: EC50 of inhibition of aprA′::GFP reporter fluorescence): 5.33
- effect on growth (Mtb CDC1551(aprA′::GFP); pH 5.7, across the range of ETZ concentrations tested): mostly unaffected; also recorded: little effect on growth
- effect on growth (Mtb CDC1551(aprA′::GFP); pH 7.0): little effect on growth
- down-regulation of espR and the espACD operon (PhoPR regulon [2]): > 1.5 fold
- down-regulation of mmpL8-pks2 operon (Rv3823c-Rv3825c) (PhoPR regulon [2]; ETZ at acidic pH): ~5 fold
- regulation of phoP gene expression (PhoPR regulon [3]): did not exhibit substantial differential regulation
- down-regulation of aprA (PhoPR regulon [3]; both pH 7.0 and 5.7): > 5 fold
- down-regulation of pks2 (PhoPR regulon [3]; both pH 7.0 and 5.7): > 5 fold
- ESAT-6 and CFP-10 expression (Esx-1 protein export): did not affect
- secretion of ESAT-6 and CFP-10 (Esx-1 protein export): strongly and selectively reduced; also recorded: inhibits the secretion
- secretion of Sec-secreted protein Mpt-32 (Esx-1 protein export): did not alter
- inhibition of reporter GFP fluorescence in infected macrophages (PhoPR regulon [4]): significantly down-regulates
- inhibition at 100 µM (PhoPR regulon [4]; Mycobacterium tuberculosis, BMDM, read-out: inhibition of reporter GFP fluorescence in infected macrophages): > 90%
- drug-related organ lesions ([5]; 100 mg/kg): no observable drug-related organ lesions
- LD50 [5]: ~1000 mg/kg
- half-life [5]: 2.5 to 5.5 h
- acidification of cytoplasm (WT Mtb CDC1551; ETZ 80 μM, 6 days, medium pH 5.7): < 0.1 pH units
- change of cytoplasmic pH (WT Mtb CDC1551; ETZ 80 μM, 6 days, medium pH 7.0): no change
- acidification of cytoplasmic pH (WT Mtb CDC1551; ETZ treated Mtb): slight acidification
- percent lung area affected (Mtb-associated granulomatous pneumonia) [6]: did not have a significant reduction; also recorded: no significant difference
- accumulation of sulfolipid (SL) (Mtb lipid synthesis): not detected; also recorded: lack of accumulation
- phagosome acidification (BMDMs): did not alter phagosome acidification
- Mtb cells in the bottom decile of GFP fluorescence (PhoPR regulon [7]): 49%
